The record followed here is ChEMBL document CHEMBL1201862, “PubChem BioAssay data set” (2004).

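48-hour exposure; five concentrations; linearly interpolated endpoints. At the GI50, growth is halved.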 Calls of active or inactive are those of the source. Rule as the data show it: active = GI50 up to about 1.1 µM and inactive = higher. Bounds are passed on as bounds.

In general, GI50 refers to the concentration at which growth is held to half of that of the control.

Test systems include KM12; MDA-MB-435; SW-620; 786-0; NCI-H226; UACC-257; BT-549; HCT-15; IGROV-1; NCI-H23; HOP-62; T47D; HL-60; K562; EKVX; RXF 393; HOP-92; NCI-H522; DU-145; U-251.
Test in all cases: DTP human tumour cell line panel, 48 h

As for `COc1cc2c(cc1OC)C(Cl)C(c1ccc(Br)cc1)=C2Cl` (centres undefined), the GI50 with KM12 is 16.3 µM (inactive); in the experiment on MDA-MB-435 it was 4.37 µM (inactive); in the experiment with SW-620, 9.51 µM (inactive); in the experiment with 786-0 it was 3.94 µM (inactive); with NCI-H226, 11.3 µM (inactive); in the experiment on UACC-257, 15.1 µM (inactive). In addition, the GI50 with BT-549 is 2.31 µM (inactive); in the experiment on HCT-15, 8.18 µM; in the experiment with IGROV-1 it was 11.9 µM (inactive); in the experiment on NCI-H23, 9.95 µM (inactive); with HOP-62, 17.9 µM (inactive); with T47D it was 3.23 µM (inactive). Moreover, the GI50 was 5.46 µM (inactive) in the experiment on HL-60; 5.33 µM (inactive) in the experiment on K562; 10.6 µM (inactive) in the experiment with EKVX; 11.2 µM (inactive) in the experiment with RXF 393; 12.1 µM (inactive) in the experiment with HOP-92; 4.42 µM (inactive) in the experiment with NCI-H522. The values for the GI50 with DU-145 and in the experiment on U-251 were 11.3 µM (inactive) and 10.2 µM (inactive), respectively.

On to `O=C1c2ccccc2C(=O)N1c1ccc(OCCN2CCCCC2)cc1`, for which the GI50 in the experiment with KM12, in the experiment with MDA-MB-435, in the experiment with SW-620, in the experiment with 786-0, in the experiment on NCI-H226 and in the experiment on UACC-257 was > 100 µM (inactive) throughout. Besides, the GI50 in the experiment with BT-549 is > 100 µM (inactive); in the experiment on HCT-15, above 100 µM; with IGROV-1, > 100 µM (inactive); in the experiment with NCI-H23 it was > 100 µM (inactive); with HOP-62 it was > 100 µM (inactive); in the experiment with T47D, > 100 µM (inactive). The GI50 in the experiment on HL-60, with K562, with EKVX, in the experiment with RXF 393, in the experiment on HOP-92 and in the experiment with NCI-H522 was > 100 µM (inactive) each time. Besides, the GI50 in the experiment with DU-145 and with U-251 was > 100 µM (inactive) throughout.

Take `COc1ccc2c(C(=O)c3c(C)n(CCN4CCOCC4)c4ccccc34)cccc2c1`: the GI50 with KM12 was 22.9 µM (inactive); in the experiment on MDA-MB-435, 5.6 µM (inactive); in the experiment with SW-620, 1.27 µM (inactive); in the experiment on 786-0 it was 27.7 µM (inactive); in the experiment with NCI-H226, > 100 µM (inactive); in the experiment on UACC-257, 20.3 µM (inactive). Besides, the GI50 was 20.2 µM (inactive) in the experiment on BT-549; 21.3 µM with HCT-15; 36.6 µM (inactive) in the experiment with IGROV-1; 18.8 µM (inactive) in the experiment with NCI-H23; 71.9 µM (inactive) with HOP-62; 17.4 µM (inactive) in the experiment on T47D. In addition, the GI50 was 4.93 µM (inactive) in the experiment with HL-60; 18.7 µM (inactive) in the experiment on K562; 31.6 µM (inactive) in the experiment with EKVX; 22.1 µM (inactive) with RXF 393; 19.8 µM (inactive) in the experiment on HOP-92; 18.7 µM (inactive) in the experiment on NCI-H522. Besides, the GI50 was 38 µM (inactive) in the experiment on DU-145 and 15.3 µM (inactive) in the experiment on U-251.

In the case of `N#CC1(C#N)C2(c3ccccc3)OC(c3ccccc3)(c3cc4ccccc4cc32)C1(C#N)C#N`, the GI50 in the experiment with KM12 was 7.85 µM (inactive); in the experiment on MDA-MB-435, 17.1 µM (inactive); in the experiment with SW-620 it was 2.62 µM (inactive); with 786-0 it was 8.51 µM (inactive); in the experiment on NCI-H226 it was 12.6 µM (inactive); with UACC-257, 27.5 µM (inactive). In addition, the GI50 with BT-549 is > 10 µM (inactive); with HCT-15, 12.2 µM; in the experiment with IGROV-1, 14.8 µM (inactive); with NCI-H23, 11.9 µM (inactive); with HOP-62, 20.7 µM (inactive); in the experiment on T47D it was 13.6 µM (inactive). Besides, the GI50 with HL-60 is 2.37 µM (inactive); with K562, 2.86 µM (inactive); with EKVX, 16.6 µM (inactive); with RXF 393, 5.51 µM (inactive); in the experiment with HOP-92, 1.52 µM (inactive); with NCI-H522, 3.01 µM (inactive). Also, the GI50 is 14.5 µM (inactive) with DU-145 and 16.3 µM (inactive) with U-251.

`COc1cccc2c1C(=O)C(=O)c1c-2oc(=O)c2cc(C)cc(OC)c12`: the GI50 was 21.1 µM (inactive) in the experiment with KM12; 14.2 µM (inactive) in the experiment with MDA-MB-435; 29.4 µM (inactive) in the experiment with SW-620; 26.2 µM (inactive) in the experiment on 786-0; 72.8 µM (inactive) in the experiment on NCI-H226; 14.9 µM (inactive) with UACC-257. Moreover, the GI50 in the experiment with BT-549 is 13.5 µM (inactive); with HCT-15 it was 13.4 µM; in the experiment with IGROV-1, 16.7 µM (inactive); in the experiment with NCI-H23 it was 19.3 µM (inactive); in the experiment on HOP-62, 15.9 µM (inactive); with T47D, 29.9 µM (inactive). For the same compound, the GI50 in the experiment with HL-60 was 25.7 µM (inactive); with K562 it was 22.3 µM (inactive); in the experiment with EKVX, 22.5 µM (inactive); in the experiment on RXF 393, 19.1 µM (inactive); in the experiment with HOP-92 it was 59.2 µM (inactive); with NCI-H522, 14.1 µM (inactive). The GI50 in the experiment on DU-145 was 13.6 µM (inactive); in the experiment on U-251, 12.8 µM (inactive).

Turning to `CCCCn1c(C)c(C(=O)OCC)s/c1=N/Nc1nc2ccccc2nc1-c1ccccc1`, the GI50 in the experiment with MDA-MB-435 is > 100 µM (inactive); in the experiment on SW-620 it was > 100 µM (inactive); with 786-0 it was 49.1 µM (inactive); in the experiment with NCI-H226, 78.5 µM (inactive); with UACC-257, > 100 µM (inactive); in the experiment with BT-549 it was > 100 µM (inactive). Also, the GI50 with HCT-15 is above 100 µM; with IGROV-1, 75.7 µM (inactive); in the experiment on NCI-H23, 92.9 µM (inactive); in the experiment on HOP-62, 30.8 µM (inactive); with T47D it was 52.1 µM (inactive); with HL-60 it was 17.9 µM (inactive). Moreover, the GI50 was > 100 µM (inactive) with K562; > 100 µM (inactive) with EKVX; > 100 µM (inactive) in the experiment with RXF 393; 44 µM (inactive) with HOP-92; 41.2 µM (inactive) with NCI-H522; 37.7 µM (inactive) in the experiment on DU-145. Further, the GI50 in the experiment on U-251 was 43.6 µM (inactive).

`COCC12CCC(OC)C34C5CC6(O)C(OC)CC(OC(C)=O)(C5C6OC(=O)c5ccccc5)C(C(OC)C13)C4N(C)C2` (centres undefined): the GI50 in the experiment on KM12, in the experiment with MDA-MB-435, in the experiment with SW-620, with 786-0, in the experiment with NCI-H226 and in the experiment with UACC-257 was > 100 µM (inactive) throughout. In addition, the GI50 in the experiment on BT-549 is > 100 µM (inactive); in the experiment with HCT-15, above 100 µM; in the experiment on IGROV-1, > 100 µM (inactive); in the experiment on NCI-H23 it was > 100 µM (inactive); in the experiment on HOP-62 it was > 100 µM (inactive); with T47D it was > 100 µM (inactive). Besides, the GI50 in the experiment on HL-60 is 83.8 µM (inactive); in the experiment on EKVX it was > 100 µM (inactive); with RXF 393 it was > 100 µM (inactive); in the experiment with HOP-92, > 100 µM (inactive); in the experiment on NCI-H522, > 100 µM (inactive); with DU-145, > 100 µM (inactive). Moreover, in the experiment with U-251, the GI50 is > 100 µM (inactive).

Regarding `Cc1cccc(/N=N/c2c(C)nn(C(=O)CC(=O)Nc3ccccc3)c2C)c1`, the GI50 in the experiment on KM12 is > 100 µM (inactive); in the experiment on MDA-MB-435, > 100 µM (inactive); in the experiment with SW-620, > 100 µM (inactive); in the experiment with 786-0, > 100 µM (inactive); in the experiment on NCI-H226 it was > 100 µM (inactive); with UACC-257, > 10 µM (inactive). In addition, the GI50 is > 100 µM (inactive) in the experiment on BT-549; above 100 µM in the experiment on HCT-15; > 100 µM (inactive) with IGROV-1; > 100 µM (inactive) in the experiment with NCI-H23; > 100 µM (inactive) with HOP-62; > 100 µM (inactive) with T47D. For the same compound, the GI50 in the experiment on HL-60, in the experiment with EKVX, in the experiment with RXF 393, in the experiment with HOP-92, with NCI-H522 and in the experiment with DU-145 was > 100 µM (inactive) in each case. Besides, the GI50 in the experiment with U-251 is > 100 µM (inactive).

With `CC1(C)C(=O)C2(C#N)CCC1C2` (centres undefined), the GI50 in the experiment on KM12, in the experiment with MDA-MB-435, in the experiment on SW-620, in the experiment on 786-0, with NCI-H226 and in the experiment on UACC-257 was > 100 µM (inactive) each time. Moreover, the GI50 in the experiment on BT-549 is > 100 µM (inactive); in the experiment on HCT-15, above 100 µM; in the experiment on IGROV-1 it was > 100 µM (inactive); in the experiment on NCI-H23 it was > 100 µM (inactive); in the experiment on HOP-62, > 100 µM (inactive); in the experiment on T47D, > 100 µM (inactive). The GI50 with HL-60, in the experiment on K562, in the experiment with EKVX, in the experiment on RXF 393, in the experiment on HOP-92 and in the experiment with DU-145 was > 100 µM (inactive) in each case. The GI50 in the experiment on U-251 is > 100 µM (inactive).

Turning to `COc1ccc(NC(C)=O)c(C(O)CCNC(C)=O)c1` (centres undefined), the GI50 with KM12, in the experiment on MDA-MB-435, with SW-620, in the experiment with 786-0, with NCI-H226 and in the experiment with UACC-257 was > 100 µM (inactive) in each case. In addition, the GI50 in the experiment with BT-549 was > 100 µM (inactive); with HCT-15 it was above 100 µM; with IGROV-1 it was > 100 µM (inactive); with NCI-H23, > 100 µM (inactive); in the experiment with T47D it was > 100 µM (inactive); in the experiment on HL-60 it was > 100 µM (inactive). Besides, the GI50 in the experiment with EKVX, in the experiment with RXF 393, in the experiment with HOP-92, with NCI-H522, in the experiment on DU-145 and in the experiment on U-251 was > 100 µM (inactive) each time.
